Assay results from PubChem BioAssay AID256 (DTP/NCI, 2004).
Values joined by “and” are separate entries in the source; they are usually repeats but may differ in a detail not shown here. Equal values may be shown once. Inconclusive results and toxic doses are left out.

Test system: CD2F1 mice, L1210 leukemia ip, survival T/C
Test: NCI In Vivo Anticancer Drug Screen. Data for tumor model L1210 Leukemia (intraperitoneal) in CD2F1 (CDF1) mice
Settings: endpoint: mean survival time, higher = longer survival
In short: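 Read-out first: treated-group measurement over vehicle-control measurement, expressed as a ratio. Animals bore a transplanted tumor line and were dosed with compound or vehicle.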

[1] = dose: 100.0 mg/kg/injection, schedule: Q01DX009 (ip), vehicle: saline
[2] = dose: 200.0 mg/kg/injection, schedule: Q01DX009 (ip), vehicle: saline
[3] = dose: 100.0 mg/kg/injection, schedule: Q04DX003 (ip), vehicle: saline with Tween-80
[4] = dose: 200.0 mg/kg/injection, schedule: Q04DX003 (ip), vehicle: saline with Tween-80
[5] = dose: 100.0 mg/kg/injection, schedule: Q04DX002 (ip), vehicle: saline with Tween-80
[6] = dose: 200.0 mg/kg/injection, schedule: Q04DX002 (ip), vehicle: saline with Tween-80
[7] = dose: 400.0 mg/kg/injection, schedule: Q04DX002 (ip), vehicle: saline with Tween-80

Structure (SMILES): O=c1ccccn1C1CC(O)C(CO)O1 (stereo unspecified)
- T/C (dose: 100.0 mg/kg/injection, schedule: Q01DX005 (ip), vehicle: saline): 101 % of control
- T/C (dose: 200.0 mg/kg/injection, schedule: Q01DX005 (ip), vehicle: saline): 103 % of control

Structure (SMILES): NCCNCCNCc1ccccc1
- T/C [1]: 94 % of control
- T/C [2]: 107 % of control

Structure (SMILES): C[N+](C)(C)CC[N+](C)(C)C
- T/C (dose: 50.0 mg/kg/injection, schedule: Q04DX003 (ip), vehicle: saline): 100 % of control
- T/C (dose: 100.0 mg/kg/injection, schedule: Q04DX003 (ip), vehicle: saline): 103 % of control
- T/C (dose: 200.0 mg/kg/injection, schedule: Q04DX003 (ip), vehicle: saline): 97 % of control

Structure (SMILES): C=CCn1c2ccccc2c2c(C)c3cnccc3c(C)c21
- T/C (dose: 25.0 mg/kg/injection, schedule: Q04DX003 (ip), vehicle: saline with Tween-80): 96 % of control and 102 % of control
- T/C (dose: 50.0 mg/kg/injection, schedule: Q04DX003 (ip), vehicle: saline with Tween-80): 100 % of control and 102 % of control
- T/C [3]: 103 % of control and 104 % of control
- T/C [4]: 113 % of control and 116 % of control

Structure (SMILES): CCCCOC1CCC(O)C2CCCCC12 (stereo unspecified)
- T/C [3]: 105 % of control
- T/C [4]: 96 % of control
- T/C (dose: 400.0 mg/kg/injection, schedule: Q04DX003 (ip), vehicle: saline with Tween-80): 104 % of control

Structure (SMILES): O=C(Nc1ccccc1)Nc1ccc2c(c1)oc1ccccc12
- T/C (dose: 50.0 mg/kg/injection, schedule: Q01DX001 (ip), vehicle: Klucel (hydroxypropylcellulose) (HPC)): 108 % of control
- T/C (dose: 100.0 mg/kg/injection, schedule: Q01DX001 (ip), vehicle: Klucel (hydroxypropylcellulose) (HPC)): 97 % of control
- T/C [5]: 95 % of control
- T/C (dose: 200.0 mg/kg/injection, schedule: Q01DX001 (ip), vehicle: Klucel (hydroxypropylcellulose) (HPC)): 94 % of control
- T/C [6]: 91 % of control
- T/C [7]: 98 % of control

Structure (SMILES): CC(=O)NCC(O)C(O)C(O)C(O)CO (stereo unspecified)
- T/C [1]: 96 % of control
- T/C [2]: 98 % of control
- T/C (dose: 400.0 mg/kg/injection, schedule: Q01DX009 (ip), vehicle: saline): 110 % of control

Structure (SMILES): Cc1c[nH]c(=O)n(CC(=O)C2(O)CCC3C4CCC5=CC(=O)CCC5(C)C4CCC32C)c1=O (stereo unspecified)
- T/C (dose: 12.5 mg/kg/injection, schedule: Q04DX003 (ip), vehicle: Klucel (hydroxypropylcellulose) (HPC)): 103 % of control
- T/C (dose: 25.0 mg/kg/injection, schedule: Q04DX003 (ip), vehicle: Klucel (hydroxypropylcellulose) (HPC)): 102 % of control
- T/C (dose: 50.0 mg/kg/injection, schedule: Q04DX003 (ip), vehicle: Klucel (hydroxypropylcellulose) (HPC)): 102 % of control
- T/C (dose: 100.0 mg/kg/injection, schedule: Q04DX003 (ip), vehicle: Klucel (hydroxypropylcellulose) (HPC)): 97 % of control
- T/C (dose: 200.0 mg/kg/injection, schedule: Q04DX003 (ip), vehicle: Klucel (hydroxypropylcellulose) (HPC)): 100 % of control

Structure (SMILES): C1=C(CCc2c[nH]c3ccccc23)CCN(CCc2ccccc2)C1
- T/C (dose: 50.0 mg/kg/injection, schedule: Q01DX009 (ip), vehicle: Klucel (hydroxypropylcellulose) (HPC)): 103 % of control
- T/C (dose: 100.0 mg/kg/injection, schedule: Q01DX009 (ip), vehicle: Klucel (hydroxypropylcellulose) (HPC)): 95 % of control
- T/C (dose: 200.0 mg/kg/injection, schedule: Q01DX009 (ip), vehicle: Klucel (hydroxypropylcellulose) (HPC)): 122 % of control

Structure (SMILES): CCCCSc1ncn(C)c1[N+](=O)[O-]
- T/C (dose: 50.0 mg/kg/injection, schedule: Q01DX001 (ip), vehicle: saline with Tween-80): 101 % of control
- T/C (dose: 100.0 mg/kg/injection, schedule: Q01DX001 (ip), vehicle: saline with Tween-80): 103 % of control
- T/C (dose: 200.0 mg/kg/injection, schedule: Q01DX001 (ip), vehicle: saline with Tween-80): 101 % of control

Structure (SMILES): Cc1ccc2c(c1)C(=O)/C(=C/c1ccccn1)CCO2
- T/C [5]: 92 % of control
- T/C [6]: 88 % of control
- T/C [7]: 92 % of control

Structure (SMILES): Cc1cc(=O)[nH]c(-c2ccccc2)c1C(=O)O
- T/C [5]: 95 % of control
- T/C [6]: 95 % of control
- T/C [7]: 95 % of control

Structure (SMILES): O=C(CCCCC(=O)Nc1ccc(C2=NCCN2)cc1)Nc1ccc(C2=NCCN2)cc1
- T/C (dose: 75.0 mg/kg/injection, schedule: Q01DX009 (ip), vehicle: saline): 168 % of control
- T/C (dose: 150.0 mg/kg/injection, schedule: Q01DX009 (ip), vehicle: saline): 216 % of control
- T/C (dose: 300.0 mg/kg/injection, schedule: Q01DX009 (ip), vehicle: saline): 236 % of control

Structure (SMILES): COc1ccc2ccccc2c1C1/C(=N/O)CCc2ccccc21 (stereo unspecified)
- T/C (dose: 12.5 mg/kg/injection, schedule: Q01DX009 (ip), vehicle: other): 98 % of control
- T/C (dose: 25.0 mg/kg/injection, schedule: Q01DX009 (ip), vehicle: other): 94 % of control
- T/C (dose: 50.0 mg/kg/injection, schedule: Q01DX009 (ip), vehicle: other): 98 % of control
- T/C (dose: 100.0 mg/kg/injection, schedule: Q01DX009 (ip), vehicle: other): 98 % of control
- T/C (dose: 200.0 mg/kg/injection, schedule: Q01DX009 (ip), vehicle: other): 96 % of control

Structure (SMILES): CCOc1c[n+](C)c(C)s1
- T/C (dose: 50.0 mg/kg/injection, schedule: Q01DX001 (ip), vehicle: carboxymethylcellulose (CMC)): 94 % of control
- T/C (dose: 100.0 mg/kg/injection, schedule: Q01DX001 (ip), vehicle: carboxymethylcellulose (CMC)): 92 % of control
- T/C (dose: 200.0 mg/kg/injection, schedule: Q01DX001 (ip), vehicle: carboxymethylcellulose (CMC)): 103 % of control
